Patent US11008334B2, “Compositions and methods for treating cancer” (The Regents of the University of California, priority 2012, dated 2021)
Where two headings read alike, the source gives them in different places.

Target: T1, K-RasG12C (1-169) (Homo sapiens, UniProt P01116, G12C)
T1 construct: Un-tagged recombinant K-Ras G12C (1-169) at 4 μM in Buffer A; hexahistidine (cleaved yes); made in house; host or cells: Escherichia coli BL21 (DE)
Assay: Mass spectrometric screen for extent of covalent labeling
Type: binding
Conditions: for percent covalent labeling at 10 µM: 10 micromolar; for Labeling % (10 micM) 24h: 10 micM compound, (plate) or (single) measurement
Protocol: Un-tagged recombinant K-Ras G12C (1-169) at 4 μM in Buffer A was reacted with inhibitors at 200 μM or 10 μM (2% DMSO final). At 2, 6, and 24 hrs, 10 μL aliquots were removed and the reactions were stopped by addition of 1 μL 2% formic acid. The extent of modification was determined by mass spectrometry.

[1] = 2 h, 2 hrs, read-out: Percent reduction in activity of compound at 10 micromolar relative to control (no compound), 2 hrs
[2] = 6 h, 6 hrs, read-out: Percent reduction in activity of compound at 10 micromolar relative to control (no compound), 6 hrs
[3] = 24 h, 24 hrs, read-out: Percent reduction in activity of compound at 10 micromolar relative to control (no compound), 24 hrs

percent covalent labeling at 10 µM [1] [%] | percent covalent labeling at 10 µM [2] [%] | percent covalent labeling at 10 µM [3] [%] | Labeling % (10 micM) 24h | Labeling % (10 micM) 24h (Table 5) | Compound
≤ 5 | ≤ 5 | ≤ 5 | – | – | CN(C)C/C=C/C(=O)NC1CCN(C(=O)COc2ccc(Cl)cc2Cl)CC1 [Ras-007]
≤ 5 | ≤ 5 | ≤ 5 | – | – | C=CS(=O)(=O)NC1CCN(C(=O)COc2c(Cl)cc(Cl)cc2Cl)CC1 [Ras-008]
≤ 5 | ≤ 5 | ≤ 5 | – | – | C=CS(=O)(=O)NC1CCN(C(=O)Cn2ncc3ccccc32)CC1 [Ras-009]
≤ 5 | ≤ 5 | ≤ 5 | – | – | C=CS(=O)(=O)NC1CCN(C(=O)CCn2ncc3ccccc32)CC1 [Ras-010]
≤ 5 | ≤ 5 | 20 to 40 | – | – | C=CS(=O)(=O)NC1CCN(C(=O)COc2cc(C(F)(F)F)c(Cl)cc2Cl)CC1 [Ras-011]
≤ 5 | ≤ 5 | ≤ 5 | – | – | C=CS(=O)(=O)NC1CCN(C(=O)CCn2cnc3ccccc32)CC1 [Ras-012]
≤ 5 | ≤ 5 | 5 to 20 | – | – | C=CS(=O)(=O)NC1CCN(C(=O)COc2cc(C#N)c(Cl)cc2Cl)CC1 [Ras-013]
≤ 5 | ≤ 5 | ≤ 5 | – | – | C=CS(=O)(=O)NC1CCN(C(=O)Cn2cnc3ccccc32)CC1 [Ras-014]
≤ 5 | ≤ 5 | 20 to 40 | – | – | C=CS(=O)(=O)NC1CCN(C(=O)COc2ccc(Cl)cc2Br)CC1 [Ras-015]
≤ 5 | ≤ 5 | ≤ 5 | – | – | C=CS(=O)(=O)NC1CCN(C(=O)COc2ccc(Cl)cc2NC(C)=O)CC1 [Ras-016]
≤ 5 | ≤ 5 | ≤ 5 | – | – | C=CS(=O)(=O)NC1CCN(C(=O)COc2ccc(Cl)cc2F)CC1 [Ras-017]
≤ 5 | ≤ 5 | 20 to 40 | – | – | C=CS(=O)(=O)NC1CCN(C(=O)COc2ccc(Cl)cc2C)CC1 [Ras-018]
≤ 5 | ≤ 5 | 5 to 20 | – | – | C=CS(=O)(=O)NC1CCN(C(=O)COc2cc(N)c(Cl)cc2Cl)CC1 [Ras-019]
≤ 5 | ≤ 5 | ≤ 5 | – | – | C=CS(=O)(=O)NC1CCN(C(=O)COc2ccc(Cl)cc2C(=O)OC)CC1 [Ras-020]
≤ 5 | ≤ 5 | ≤ 5 | – | – | C=CS(=O)(=O)NC1CCN(C(=O)COc2ccc(Cl)cc2C#N)CC1 [Ras-021]
≤ 5 | ≤ 5 | ≤ 5 | – | – | C=CS(=O)(=O)NC1CCN(C(=O)COc2cc(NC(C)=O)c(Cl)cc2Cl)CC1 [Ras-022]
≤ 5 | ≤ 5 | ≤ 5 | – | – | C=CS(=O)(=O)NC1CCN(C(=O)COc2ccc(Cl)cc2C(N)=O)CC1 [Ras-023]
≤ 5 | ≤ 5 | ≤ 5 | – | – | C=CS(=O)(=O)NC1CCN(C(=O)COc2cc(NC)c(Cl)cc2Cl)CC1 [Ras-024]
≤ 5 | ≤ 5 | ≤ 5 | – | – | C=CS(=O)(=O)NC1CCN(C(=O)COc2ccc(Cl)cc2C(=O)N(C)C)CC1 [Ras-025]
≤ 5 | ≤ 5 | 5 to 20 | – | – | C=CS(=O)(=O)NC1CCN(C(=O)COc2cc(N(C)C)c(Cl)cc2Cl)CC1 [Ras-026]
≤ 5 | ≤ 5 | ≤ 5 | – | – | C=CS(=O)(=O)NC1CCN(C(=O)COc2cc(OCCN)c(Cl)cc2Cl)CC1 [Ras-027]
≤ 5 | ≤ 5 | 20 to 40 | +++ (plate) (20%< +++ <=40%) | +++ (plate) (20%< +++ <=40%) | C=CS(=O)(=O)NC1CCN(C(=O)CNc2ccc(Cl)cc2Cl)CC1 [Ras-028]
≤ 5 | ≤ 5 | ≤ 5 | – | – | C=CS(=O)(=O)NC1CCN(C(=O)COc2ccc(Cl)cc2N2CCCC2)CC1 [Ras-029]
≤ 5 | ≤ 5 | 40 to 60 | – | – | C=CS(=O)(=O)NC1CCN(C(=O)COc2ccc(Cl)cc2I)CC1 [Ras-030]

percent covalent labeling at 10 µM [1] [%] | percent covalent labeling at 10 µM [2] [%] | percent covalent labeling at 10 µM [3] [%] | Labeling % (10 micM) 24h | Labeling % (10 micM) 24h (Table 5) | Compound
≤ 5 | ≤ 5 | ≤ 5 | – | – | C=CS(=O)(=O)NC1CCN(C(=O)COc2ccc(Cl)cc2CNC(C)=O)CC1 [Ras-031]
≤ 5 | ≤ 5 | ≤ 5 | – | – | C=CS(=O)(=O)NC1CCN(C(=O)COc2ccc(Cl)cc2CN)CC1 [Ras-032]
≤ 5 | ≤ 5 | ≤ 5 | – | – | C=CS(=O)(=O)NC1CCN(C(=O)COc2ccc(Cl)cc2N)CC1 [Ras-033]
≤ 5 | ≤ 5 | ≤ 5 | – | – | C=CS(=O)(=O)NC1CCN(C(=O)COc2ccc(Cl)cc2N(C)C)CC1 [Ras-034]
≤ 5 | ≤ 5 | ≤ 5 | – | – | C=CS(=O)(=O)NC1CCN(C(=O)COc2cc(C(N)=O)c(Cl)cc2Cl)CC1 [Ras-035]
≤ 5 | 5 to 20 | 40 to 60 | – | – | C=CS(=O)(=O)NC1CCN(C(=O)COc2cc(I)c(Cl)cc2Cl)CC1 [Ras-036]
≤ 5 | ≤ 5 | 5 to 20 | – | – | C=CS(=O)(=O)NC1CCN(C(=O)COc2cc(C(=O)OC)c(Cl)cc2Cl)CC1 [Ras-037]
≤ 5 | ≤ 5 | ≤ 5 | – | – | C=CS(=O)(=O)NC1CCN(C(=O)COc2cc(C(=O)O)c(Cl)cc2Cl)CC1 [Ras-038]
≤ 5 | ≤ 5 | 5 to 20 | – | – | C=CS(=O)(=O)NC1CCN(C(=O)COc2cc(O)c(Cl)cc2Cl)CC1 [Ras-039]
≤ 5 | ≤ 5 | 20 to 40 | – | – | C=CS(=O)(=O)NC1CCN(C(=O)COc2cc(Br)c(Cl)cc2Cl)CC1 [Ras-040]
≤ 5 | ≤ 5 | 5 to 20 | – | – | C=CS(=O)(=O)NC1CCN(C(=O)COc2ccc(Cl)cc2OC)CC1 [Ras-041]
≤ 5 | ≤ 5 | 5 to 20 | – | – | C=CS(=O)(=O)NC1CCN(C(=O)COc2ccc(Cl)cc2C=O)CC1 [Ras-042]
≤ 5 | ≤ 5 | ≤ 5 | – | – | C=CS(=O)(=O)NC1CCN(C(=O)COc2cc(C(C)=O)c(Cl)cc2Cl)CC1 [Ras-043]
≤ 5 | ≤ 5 | 5 to 20 | – | – | C=CS(=O)(=O)NC1CCN(C(=O)COc2cc(C(C)O)c(Cl)cc2Cl)CC1 (centres unmarked) [Ras-044]
≤ 5 | ≤ 5 | ≤ 5 | – | – | C=CS(=O)(=O)NC1CCN(C(=O)COc2cc(-c3nn[nH]n3)c(Cl)cc2Cl)CC1 [Ras-045]
≤ 5 | ≤ 5 | ≤ 5 | – | – | C=CS(=O)(=O)NC1CCN(C(=O)COc2ccc(Cl)cc2C(=O)N2CCC(NS(=O)(=O)C=C)CC2)CC1 [Ras-046]
≤ 5 | ≤ 5 | ≤ 5 | – | – | C=CS(=O)(=O)NC1CCN(C(=O)COc2cc(S(N)(=O)=O)c(Cl)cc2Cl)CC1 [Ras-047]
≤ 5 | ≤ 5 | 5 to 20 | – | – | C=CS(=O)(=O)NC1CCN(C(=O)COc2cc(OCCO)c(Cl)cc2Cl)CC1 [Ras-048]
≤ 5 | ≤ 5 | ≤ 5 | – | – | C=CS(=O)(=O)NC1CCN(C(=O)COc2cc(C(=O)NCCO)c(Cl)cc2Cl)CC1 [Ras-049]
≤ 5 | ≤ 5 | 5 to 20 | – | – | C=CS(=O)(=O)NC1CCN(C(=O)COc2cc(CO)c(Cl)cc2Cl)CC1 [Ras-050]
≤ 5 | ≤ 5 | 5 to 20 | – | – | C=CS(=O)(=O)NC1CCN(C(=O)COc2ccc(Cl)cc2CO)CC1 [Ras-051]
≤ 5 | ≤ 5 | 5 to 20 | – | – | C=CS(=O)(=O)NC1CCN(C(=O)CN(C)c2cc(Cl)c(Cl)cc2I)CC1 [Ras-052]
≤ 5 | 5 to 20 | 40 to 60 | – | – | C=CS(=O)(=O)NC1CCN(C(=O)COc2cc(Cl)c(Cl)cc2I)CC1 [Ras-053]
